From the supplement of paper PMC12613149 come the findings set out here.

Data set [1] in a line: reversed-phase LC retention time (C18, 15 min MeOH gradient); higher = more hydrophobic / later elution.
Data set [2] in a line: collision cross section (TIMS, N2 drift gas) of the primary ion; higher = larger gas-phase ion size.
Setting [3] is: ionization mode: ESI+, ion species: [M+H]+.
The mark [4] stands for this setting: ionization mode: ESI-, ion species: [M-H]-.

In the case of `CCOC(=O)C1=C(C)NC(C)=C(C(=O)OC)C1c1cccc([N+](=O)[O-])c1` (stereo unspecified) [Nitrendipin], the “reversed-phase LC retention time” value in data set [1] (setting [3]) worked out at 14.4 min; in data set [1] (setting [4]) it was 14.7 min. The collision cross section in data set [2] (setting [3]) came out at 184.47 Å²; in data set [2] (setting [4]), 183.62 Å².
Turning to `O=C1CN(/N=C/c2ccc([N+](=O)[O-])o2)C(=O)N1` [Nitrofurantoin], in data set [1] (setting [4]), the “reversed-phase LC retention time” value was 6.35 min. In data set [2] (setting [4]), this molecule came in with a collision cross section of 149.37 Å².
On the same counts, the results for `CC(C)CC(C)CC(C)c1ccc(O)cc1` (stereo not drawn) [Nonylphenol_isomers] are 17.9 min and 161.38 Å².
On to `C#C[C@]1(O)CC[C@H]2[C@@H]3CCC4=CC(=O)CC[C@@H]4[C@H]3CC[C@@]21C` [Norethindrone], for which the “reversed-phase LC retention time” value in data set [1] (setting [3]) was 13.9 min. For the same molecule, the collision cross section in data set [2] (setting [3]) stood at 177.62 Å².
Turning to `CCn1cc(C(=O)O)c(=O)c2cc(F)c(N3CCNCC3)cc21` [Norfloxacin], the “reversed-phase LC retention time” value in data set [1] (setting [3]) turned out to be 8.08 min. For the same molecule, in data set [2] (setting [3]), the collision cross section turned out to be 173.95 Å².
Consider `C#C[C@]1(OC(C)=O)CC[C@H]2[C@@H]3CCC4=C/C(=N/O)CC[C@@H]4[C@H]3CC[C@@]21CC` [Norgestimate], for which, in data set [1] (setting [3]), the “reversed-phase LC retention time” value was 16.3 min. In data set [2] (setting [3]), this molecule came in with a collision cross section of 200.98 Å².
Consider `c1ccc2c(c1)[nH]c1cnccc12` [Norharmane], for which the “reversed-phase LC retention time” value stood at 8.24 min in data set [1] (setting [3]) and 12.9 min in data set [1] (setting [4]). For the same molecule, the values for the collision cross section in data set [2] (setting [3]) and in data set [2] (setting [4]) were 132.84 Å² and 129.43 Å², respectively.
Consider `CC1(C)CC(NC(=O)c2cccc(C(=O)NC3CC(C)(C)NC(C)(C)C3)c2)CC(C)(C)N1` [Nylostab S-EED], for which the “reversed-phase LC retention time” value came out at 8.03 min in data set [1] (setting [3]) and 11.7 min in data set [1] (setting [4]). The collision cross section in data set [2] (setting [3]) came to 235.31 Å²; in data set [2] (setting [4]), 232.92 Å².
Turning to `CC1COc2c(N3CCN(C)CC3)c(F)cc3c(=O)c(C(=O)O)cn1c23` (stereo unspecified) [Ofloxacin], the “reversed-phase LC retention time” value in data set [1] (setting [3]) turned out to be 7.93 min. Besides, the collision cross section in data set [2] (setting [3]) is 182.54 Å².
In the case of `CCCCCCCC/C=C\CCCCCCCC(N)=O` [Oleic acid amide], the “reversed-phase LC retention time” value in data set [1] (setting [3]) is 18.5 min. For the same molecule, the collision cross section in data set [2] (setting [3]) came to 177.48 Å².
In the case of `COc1ccc2nc(SCc3ncc(C)c(OC)c3C)[nH]c2c1` [Omeprazole sulfide], the entries for the “reversed-phase LC retention time” value in data set [1] (setting [3]) and in data set [1] (setting [4]) were 11.2 min and 13.9 min, respectively. Moreover, the collision cross section in data set [2] (setting [3]) stood at 179.62 Å²; in data set [2] (setting [4]), 181.72 Å².
`CNC(=O)CSP(=O)(OC)OC` [Omethoate]: the “reversed-phase LC retention time” value in data set [1] (setting [3]) turned out to be 6.04 min. Besides, the collision cross section in data set [2] (setting [3]) worked out at 135.65 Å².
On the same counts, the results for `Cc1nccn1CC1CCc2c(c3ccccc3n2C)C1=O` (stereo unspecified) [Ondansetron] are 9.49 min and 173.57 Å².
For `CCCCCCCCCCC[C@@H](C[C@@H]1OC(=O)[C@H]1CCCCCC)OC(=O)[C@H](CC(C)C)NC=O` [Orlistat], the “reversed-phase LC retention time” value in data set [1] (setting [4]) turned out to be 19.9 min. This molecule returned a collision cross section in data set [2] (setting [4]) of 232.61 Å².
Take `CC(C)Oc1cc(-n2nc(C(C)(C)C)oc2=O)c(Cl)cc1Cl` [Oxadiazone]: in data set [1] (setting [3]), the “reversed-phase LC retention time” value was found to be 16.9 min. In data set [2] (setting [3]), the collision cross section is 182.66 Å².
With `O=C1Nc2ccc(Cl)cc2C(c2ccccc2)=NC1O` (stereo unspecified) [Oxazepam], the figures for the “reversed-phase LC retention time” value in data set [1] (setting [3]) and in data set [1] (setting [4]) were 13.1 min and 13.4 min, respectively. Besides, the collision cross section is on record as 164.08 Å² in data set [2] (setting [3]) and 162.74 Å² in data set [2] (setting [4]).
In the case of `NC(=O)N1c2ccccc2CC(=O)c2ccccc21` [Oxcarbazepine], the “reversed-phase LC retention time” value in data set [1] (setting [3]) amounted to 10.7 min. The collision cross section in data set [2] (setting [3]) came to 155.46 Å².
On the same counts, the results for `CCN(CC)CC#CCOC(=O)C(O)(c1ccccc1)C1CCCCC1` (stereo unspecified) [Oxybutynin] are 13.4 min and 187.9 Å².
On the same counts, the results for `CN(C)[C@@H]1C(O)=C(C(N)=O)C(=O)[C@@]2(O)C(O)=C3C(=O)c4c(O)cccc4[C@@](C)(O)[C@H]3[C@H](O)[C@@H]12` [Oxytetracycline] are 8.42 min and 198.92 Å².
On the same counts, the results for `CCCCCCCCCCCCCCCC(=O)NCCO` [Palmitoylethanolamide] are 18.3 min and 193.35 Å².
Take `CCCC(Cn1cncn1)c1ccc(Cl)cc1Cl` (stereo unspecified) [Penconazole]: the “reversed-phase LC retention time” value in data set [1] (setting [3]) came to 15.5 min. Further, the collision cross section in data set [2] (setting [3]) was 166.33 Å².
As for `O=C(Nc1ccccc1)N(Cc1ccc(Cl)cc1)C1CCCC1` [Pencycuron], the “reversed-phase LC retention time” value in data set [1] (setting [3]) amounted to 16.1 min. The collision cross section in data set [2] (setting [3]) was 181.17 Å².
On the same counts, the results for `CCC(CC)Nc1c([N+](=O)[O-])cc(C)c(C)c1[N+](=O)[O-]` [Pendimethalin] are 17.1 min and 160.71 Å².
